Source: PubChem BioAssay (NCI)
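96-well plates; 48 h exposure; 5 concentrations. Endpoints by linear interpolation between flanking doses. Not reached: highest tested concentration assigned. At the TGI there is no net growth.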 Where a SMILES comes first, the peptide text is derived from it. [ ]: non-standard residue; d: D form. The star is where a group is joined. ξ: configuration not given here. NMeF = CN[CH](Cc1ccccc1)C(=O)O; ξNMe2Val = CC(C)C(C(=O)*)N(C)C; NMeV = CN[CH](C(=O)O)C(C)C; OtBu = CC(C)(C)O*

Experiments:
Assay in all cases: DTP human tumour cell line panel, 48 h
UO-31 renal = test system: UO-31 renal
MALME-3M melanoma = test system: MALME-3M melanoma
RXF 393 renal = test system: RXF 393 renal
SNB-75 CNS = test system: SNB-75 CNS
COLO 205 colon = test system: COLO 205 colon
NCI-H522 lung = test system: NCI-H522 lung
PC-3 prostate = test system: PC-3 prostate
SF-539 CNS = test system: SF-539 CNS
MCF7 breast = test system: MCF7 breast
BT-549 breast = test system: BT-549 breast

SMILES	TGI (UO-31 renal) [µM]	TGI (MALME-3M melanoma) [µM]	TGI (RXF 393 renal) [µM]	TGI (SNB-75 CNS) [µM]	TGI (COLO 205 colon) [µM]	TGI (NCI-H522 lung) [µM]	TGI (PC-3 prostate) [µM]	TGI (SF-539 CNS) [µM]	TGI (MCF7 breast) [µM]	TGI (BT-549 breast) [µM]
COc1ccc(NC(=O)C(=O)Cc2ccc([N+](=O)[O-])c([N+](=O)[O-])c2CC(=O)C(=O)Nc2ccc(OC)cc2OC)c(OC)c1	> 100	> 100	> 100	> 100	> 100	> 100	–	–	–	–
COc1ccc(/C=C/C(=O)c2ccc(Br)cc2)cc1	> 100	> 100	–	> 100	> 100	–	> 100	> 100	> 100	–
Cc1nc2ccc(NC3OCC(O)C(O)C3O)cc2c(=O)n1-c1ccccc1 (configuration not stated)	> 100	> 100	> 100	> 100	> 100	> 100	> 100	–	> 100	> 100
CC(C)C(C(=O)N(C)C(Cc1ccccc1)C(=O)N(C)C(C(=O)N(C)C(C(=O)N1CCCC1C(=O)OC(C)(C)C)C(C)C)C(C)C)N(C)C (configuration not stated) (ξNMe2Val-[NMeF][NMeV][NMeV]P-OtBu; configuration not given here)	> 100	–	–	–	> 100	46.5	–	> 100	–	–
Cc1nn2c(c1C#N)NNc1c-2sc(=N)nnc1=O	> 100	> 100	> 100	–	> 100	> 100	–	> 100	–	–
C=CCOC(=O)Cn1ccc(=O)[nH]c1=O	> 100	> 100	–	> 100	> 100	–	> 100	> 100	> 100	–
CCCN(CCC)C(=O)c1c(N2CCN(C)CC2)c2cccnc2n2c(C)cnc12	> 100	> 100	> 100	> 100	> 100	> 100	> 100	> 100	> 100	–
Cc1ccc(S(=O)(=O)N(CCNC(=O)c2cccc(O)c2O)c2cc3c4c(c2)Oc2cccc5c2C4(C)c2c(cccc2O3)O5)cc1	> 100	> 100	–	> 100	–	–	> 100	> 100	> 100	–
CCSc1nc(N/N=C/c2cccs2)c2cnn(CO)c2n1	10.2	26.9	13.9	28.7	29.7	15.5	21.4	26	14.4	–
CN(C)CCC[N+]1=Nc2cccc3cccc(c23)N1	> 100	> 100	–	> 100	–	91.2	–	> 100	–	–
O=c1/c(=C/c2ccccn2)sc2nc3cc4c(cc3n12)OCCO4	> 100	> 100	> 100	> 100	> 100	> 100	> 100	–	–	> 100
COc1ccc(N2C(=O)/C(=C/c3ccc(N(CCC#N)CCC#N)cc3)N=C2c2ccccc2)cc1	> 100	> 100	> 100	> 100	> 100	–	> 100	> 100	> 100	> 100
C=C(C)CCC1C=[N+]([O-])OC(C)(C)C1(C)C (configuration not stated)	> 100	–	> 100	> 100	> 100	> 100	–	> 100	> 100	–
